# Data taken from the supplement of paper PMC10307832.
# How the values were obtained:
# Experiment in all cases: relative viability (nuclei count vs DMSO), 5 days (fraction); higher = more cells survive
# A-427 = tested on: A-427
# Outline: (§1)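 Lung cancer cell lines in 1536-well plates were dosed by pin tool the day after seeding, either with one drug alone or with a fixed anchor-drug dose plus five library-drug doses (not always all listed) in √10 steps. After 5 days, cells were fixed and their nuclei stained in one step (final 0.05% Triton X-100, 1% formaldehyde, 1 ug/ml Hoechst), then counted on 4× images. Relative viability is the nuclei count in treated wells divided by that in vehicle wells. Values are medians of duplicate plates.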
# CAL-12T = tested on: CAL-12T
# Outline: as §1
# COR-L 105 = tested on: COR-L 105
# Outline: as §1
# EMC-BAC-2 = tested on: EMC-BAC-2
# Outline: as §1
# HARA = tested on: HARA
# Outline: as §1
# HCC-366 = tested on: HCC-366
# Outline: as §1
# HCC-827 = tested on: HCC-827
# Outline: as §1
# HOP-62 = tested on: HOP-62
# Outline: as §1
# LCLC-103H = tested on: LCLC-103H
# Outline: as §1
# NCI-H1395 = tested on: NCI-H1395
# Outline: as §1
# NCI-H1437 = tested on: NCI-H1437
# Outline: as §1
# NCI-H1755 = tested on: NCI-H1755
# Outline: as §1
# NCI-H1792 = tested on: NCI-H1792
# Outline: as §1
# NCI-H1915 = tested on: NCI-H1915
# Outline: as §1
# NCI-H2009 = tested on: NCI-H2009
# Outline: as §1
# NCI-H2228 = tested on: NCI-H2228
# Outline: as §1
# NCI-H23 = tested on: NCI-H23
# Outline: as §1
# NCI-H460 = tested on: NCI-H460
# Outline: as §1
# NCI-H522 = tested on: NCI-H522
# Outline: as §1
# NCI-H727 = tested on: NCI-H727
# Outline: as §1
# SK-LU-1 = tested on: SK-LU-1
# Outline: as §1
# SW 1573 = tested on: SW 1573
# Outline: as §1
structure (smiles),measurement,setting,value
COc1cc2nccc(Oc3ccc(NC(=O)Nc4cc(C)on4)c(Cl)c3)c2cc1OC [Tivozanib] + COc1cccc2cc(-c3nc([C@H]4CC[C@H](C(=O)O)CC4)n4ncnc(N)c34)[nH]c12 [OSI-027] (partner 0.5 µM),relative viability,A-427; first compound 0.005 µM,0.458
same,relative viability,A-427; first compound 0.01581 µM,0.492
same,relative viability,A-427; first compound 0.05 µM,0.552
same,relative viability,A-427; first compound 0.1581 µM,0.434
same,relative viability,A-427; first compound 0.5 µM,0.368
same,relative viability,CAL-12T; first compound 0.005 µM,0.583
same,relative viability,CAL-12T; first compound 0.01581 µM,0.737
same,relative viability,CAL-12T; first compound 0.05 µM,0.762
same,relative viability,CAL-12T; first compound 0.1581 µM,0.364
same,relative viability,CAL-12T; first compound 0.5 µM,0.418
same,relative viability,COR-L 105; first compound 0.005 µM,0.707
same,relative viability,COR-L 105; first compound 0.01581 µM,0.748
same,relative viability,COR-L 105; first compound 0.05 µM,0.719
same,relative viability,COR-L 105; first compound 0.1581 µM,0.525
same,relative viability,COR-L 105; first compound 0.5 µM,0.762
same,relative viability,EMC-BAC-2; first compound 0.005 µM,0.372
same,relative viability,EMC-BAC-2; first compound 0.01581 µM,0.385
same,relative viability,EMC-BAC-2; first compound 0.05 µM,0.38
same,relative viability,EMC-BAC-2; first compound 0.1581 µM,0.279
same,relative viability,EMC-BAC-2; first compound 0.5 µM,0.334
same,relative viability,HARA; first compound 0.005 µM,0.549
same,relative viability,HARA; first compound 0.01581 µM,0.481
same,relative viability,HARA; first compound 0.05 µM,0.65
same,relative viability,HARA; first compound 0.1581 µM,0.196
same,relative viability,HARA; first compound 0.5 µM,0.28
same,relative viability,HCC-366; first compound 0.005 µM,0.839
same,relative viability,HCC-366; first compound 0.01581 µM,0.849
same,relative viability,HCC-366; first compound 0.05 µM,1.02
same,relative viability,HCC-366; first compound 0.1581 µM,0.707
same,relative viability,HCC-366; first compound 0.5 µM,0.57
same,relative viability,HCC-827; first compound 0.005 µM,0.74
same,relative viability,HCC-827; first compound 0.01581 µM,0.693
same,relative viability,HCC-827; first compound 0.05 µM,0.766
same,relative viability,HCC-827; first compound 0.1581 µM,0.621
same,relative viability,HCC-827; first compound 0.5 µM,0.763
same,relative viability,HOP-62; first compound 0.005 µM,0.838
same,relative viability,HOP-62; first compound 0.01581 µM,0.829
same,relative viability,HOP-62; first compound 0.05 µM,0.798
same,relative viability,HOP-62; first compound 0.1581 µM,0.587
same,relative viability,HOP-62; first compound 0.5 µM,0.817
same,relative viability,LCLC-103H; first compound 0.005 µM,0.475
same,relative viability,LCLC-103H; first compound 0.01581 µM,0.481
same,relative viability,LCLC-103H; first compound 0.05 µM,0.423
same,relative viability,LCLC-103H; first compound 0.1581 µM,0.369
same,relative viability,LCLC-103H; first compound 0.5 µM,0.498
same,relative viability,NCI-H1395; first compound 0.005 µM,0.52
same,relative viability,NCI-H1395; first compound 0.01581 µM,0.635
same,relative viability,NCI-H1395; first compound 0.05 µM,0.648
same,relative viability,NCI-H1395; first compound 0.1581 µM,0.546
same,relative viability,NCI-H1395; first compound 0.5 µM,0.528
same,relative viability,NCI-H1437; first compound 0.005 µM,0.887
same,relative viability,NCI-H1437; first compound 0.01581 µM,0.843
same,relative viability,NCI-H1437; first compound 0.05 µM,0.946
same,relative viability,NCI-H1437; first compound 0.1581 µM,0.661
same,relative viability,NCI-H1437; first compound 0.5 µM,0.837
same,relative viability,NCI-H1755; first compound 0.005 µM,0.685
same,relative viability,NCI-H1755; first compound 0.01581 µM,0.77
same,relative viability,NCI-H1755; first compound 0.05 µM,0.733
same,relative viability,NCI-H1755; first compound 0.1581 µM,0.646
same,relative viability,NCI-H1755; first compound 0.5 µM,0.612
same,relative viability,NCI-H1792; first compound 0.005 µM,0.665
same,relative viability,NCI-H1792; first compound 0.01581 µM,0.633
same,relative viability,NCI-H1792; first compound 0.05 µM,0.68
same,relative viability,NCI-H1792; first compound 0.1581 µM,0.728
same,relative viability,NCI-H1792; first compound 0.5 µM,0.746
same,relative viability,NCI-H1915; first compound 0.005 µM,0.594
same,relative viability,NCI-H1915; first compound 0.01581 µM,0.604
same,relative viability,NCI-H1915; first compound 0.05 µM,0.653
same,relative viability,NCI-H1915; first compound 0.1581 µM,0.523
same,relative viability,NCI-H1915; first compound 0.5 µM,0.49
same,relative viability,NCI-H2009; first compound 0.005 µM,0.605
same,relative viability,NCI-H2009; first compound 0.01581 µM,0.689
same,relative viability,NCI-H2009; first compound 0.05 µM,0.65
same,relative viability,NCI-H2009; first compound 0.1581 µM,0.374
same,relative viability,NCI-H2009; first compound 0.5 µM,0.386
same,relative viability,NCI-H2228; first compound 0.005 µM,0.492
same,relative viability,NCI-H2228; first compound 0.01581 µM,0.54
same,relative viability,NCI-H2228; first compound 0.05 µM,0.615
same,relative viability,NCI-H2228; first compound 0.1581 µM,0.488
same,relative viability,NCI-H2228; first compound 0.5 µM,0.485
same,relative viability,NCI-H23; first compound 0.005 µM,0.578
same,relative viability,NCI-H23; first compound 0.01581 µM,0.595
same,relative viability,NCI-H23; first compound 0.05 µM,0.671
same,relative viability,NCI-H23; first compound 0.1581 µM,0.355
same,relative viability,NCI-H23; first compound 0.5 µM,0.367
same,relative viability,NCI-H460; first compound 0.005 µM,0.626
same,relative viability,NCI-H460; first compound 0.01581 µM,0.692
same,relative viability,NCI-H460; first compound 0.05 µM,0.727
same,relative viability,NCI-H460; first compound 0.1581 µM,0.622
same,relative viability,NCI-H460; first compound 0.5 µM,0.578
same,relative viability,NCI-H522; first compound 0.005 µM,0.722
same,relative viability,NCI-H522; first compound 0.01581 µM,0.788
same,relative viability,NCI-H522; first compound 0.05 µM,0.783
same,relative viability,NCI-H522; first compound 0.1581 µM,0.677
same,relative viability,NCI-H522; first compound 0.5 µM,0.604
same,relative viability,NCI-H727; first compound 0.005 µM,0.501
same,relative viability,NCI-H727; first compound 0.01581 µM,0.799
same,relative viability,NCI-H727; first compound 0.05 µM,0.688
same,relative viability,NCI-H727; first compound 0.1581 µM,0.434
same,relative viability,NCI-H727; first compound 0.5 µM,0.68
same,relative viability,SK-LU-1; first compound 0.005 µM,0.343
same,relative viability,SK-LU-1; first compound 0.01581 µM,0.314
same,relative viability,SK-LU-1; first compound 0.05 µM,0.383
same,relative viability,SK-LU-1; first compound 0.1581 µM,0.24
same,relative viability,SK-LU-1; first compound 0.5 µM,0.338
same,relative viability,SW 1573; first compound 0.005 µM,0.575
same,relative viability,SW 1573; first compound 0.01581 µM,0.633
same,relative viability,SW 1573; first compound 0.05 µM,0.68
same,relative viability,SW 1573; first compound 0.1581 µM,0.366
same,relative viability,SW 1573; first compound 0.5 µM,0.447
